Measurements reported in PMC6131557, “Selective Cytotoxicity of Dihydroorotate Dehydrogenase Inhibitors to Human Cancer Cells Under Hypoxia and Nutrient-Deprived Conditions” (Frontiers in Pharmacology, 2018).
Like-named read-outs stand apart in the source and are kept apart here.

What was measured:
NCI-H460 = experiment: 39-cancer cell panel assay: NCI-H460; type: cell-based; settings: Homo sapiens, Lu
OVCAR-5 = experiment: 39-cancer cell panel assay: OVCAR-5; type: cell-based; settings: Homo sapiens, Ov
Complex I = experiment: NADH dehydrogenase (complex I) activity, bovine mitochondria; type: biochemical; settings: at 5 μM
Protocol: (§1) Recombinant human DHODH was purified, crystallized, and assayed as previously described ([Inaoka et al., 2016]) without modification. Bovine mitochondrial fractions were prepared as previously described ([Kita et al., 1988]) and NADH dehydrogenase (complex I), succinate:quinone reductase (complex II), quinol oxidase (complexes III–IV), NADH-cytochrome c reductase (complexes I–III), and succinate-cytochrome c (complexes II–III) activities were assayed following an established method ([Takamiya et al., 1986]; [Miyadera et al., 2001]; [Matsumoto et al., 2008]; [Kido et al., 2010]; [Nihashi et al., 2017]).

MKN74 = experiment: 39-cancer cell panel assay: MKN74; type: cell-based; settings: Homo sapiens, MKN-74, St
DMS273 = experiment: 39-cancer cell panel assay: DMS273; type: cell-based; settings: Homo sapiens, DMS-273, Lu
Complex II–III = experiment: Succinate-cytochrome c reductase (complexes II–III) activity, bovine mitochondria; type: biochemical
Protocol: as §1

SF-268 = experiment: 39-cancer cell panel assay: SF-268; type: cell-based; settings: Homo sapiens, CNS
PC-3 = experiment: 39-cancer cell panel assay: PC-3; type: cell-based; settings: Homo sapiens, Pro
NCI-H226 = experiment: 39-cancer cell panel assay: NCI-H226; type: cell-based; settings: Homo sapiens, Lu
HCT-116 = experiment: 39-cancer cell panel assay: HCT-116; type: cell-based; settings: Homo sapiens, Co
MKN1 = experiment: 39-cancer cell panel assay: MKN1; type: cell-based; settings: Homo sapiens, MKN-1, St
HCT-15 = experiment: 39-cancer cell panel assay: HCT-15; type: cell-based; settings: Homo sapiens, Co
A549 = experiment: 39-cancer cell panel assay: A549; type: cell-based; settings: Homo sapiens, Lu
HCC2998 = experiment: 39-cancer cell panel assay: HCC2998; type: cell-based; settings: Homo sapiens, HCC 2998, Co
SF-295 = experiment: 39-cancer cell panel assay: SF-295; type: cell-based; settings: Homo sapiens, CNS
MDA-MB-231 = experiment: 39-cancer cell panel assay: MDA-MB-231; type: cell-based; settings: Homo sapiens, Br
OVCAR-3 = experiment: 39-cancer cell panel assay: OVCAR-3; type: cell-based; settings: Homo sapiens, Ov
DMS114 = experiment: 39-cancer cell panel assay: DMS114; type: cell-based; settings: Homo sapiens, DMS-114, Lu
DLD-1 cells = experiment: Cytotoxicity assay (Cell Counting Kit-8 / WST-8) on DLD-1 cells; type: cell-based, human; settings: Homo sapiens
Protocol: (§2) For hypoxia and nutrient-deprived culture conditions, cells were incubated under 1% oxygen in glucose and glutamine-free DMEM (Gibco) without FBS.
(§3) DLD-1 or HDF cells were seeded at 2.5 × 10^4 cells/well on a 96-well plate with normal medium, and cultured overnight under normal culture condition. The cells were washed with PBS and the medium was replaced to either normal medium or glucose and glutamine-free DMEM without FBS. Test compounds or DMSO as a control were added to the wells. The cells in normal medium were cultured under normal culture conditions, while cells in nutrient-deprived medium were cultured under hypoxia condition. After 24 or 48 h incubation, the cells were washed with PBS, 100 μl of fresh normal medium, and 10 μl of Cell Counting Kit-8 solution (Donjindo, Japan) was added to each well. After 3 h incubation under normal culture condition, the absorbance was measured at 450 nm using SpectraMax M2e-TUY microplate reader (Molecular Devices). Cell viability of test wells was calculated based on absorbance of control wells containing DMSO according to manufacturer’s protocol.

Complex III = target: T1, Complex III (Bos taurus, UniProt P00157); experiment: Quinol oxidase (complex III) activity, bovine mitochondria; type: biochemical; settings: ubiquinol oxidase activity
T1 construct: from tissue; host or cells: bovine mitochondrial fraction / sub-mitochondrial particles

HT-29 = experiment: 39-cancer cell panel assay: HT-29; type: cell-based; settings: Homo sapiens, Co
HBC-4 = experiment: 39-cancer cell panel assay: HBC-4; type: cell-based; settings: Homo sapiens, HBC4, Br
OVCAR-4 = experiment: 39-cancer cell panel assay: OVCAR-4; type: cell-based; settings: Homo sapiens, Ov
Complexes I–III = experiment: NADH-cytochrome c reductase (complexes I–III) activity, bovine mitochondria; type: biochemical
Protocol: as §1

ACHN = experiment: 39-cancer cell panel assay: ACHN; type: cell-based; settings: Homo sapiens, Re
SK-OV-3 = experiment: 39-cancer cell panel assay: SK-OV-3; type: cell-based; settings: Homo sapiens
NCI-H522 = experiment: 39-cancer cell panel assay: NCI-H522; type: cell-based; settings: Homo sapiens, Lu
MKN28 = experiment: 39-cancer cell panel assay: MKN28; type: cell-based; settings: Homo sapiens, MKN-28, St
HDF cells = experiment: Cytotoxicity assay (Cell Counting Kit-8 / WST-8) on HDF cells; type: cell-based; settings: Homo sapiens
Protocol: as §2, §3

[1] = target: T2, human dihydroorotate dehydrogenase (HsDHODH) (Homo sapiens, UniProt Q02127); experiment: Inhibition of recombinant human DHODH enzyme activity; type: biochemical; settings: for IC50: recombinant human DHODH
T2 construct: made in house
T2 sequence (Q02127 whole entry): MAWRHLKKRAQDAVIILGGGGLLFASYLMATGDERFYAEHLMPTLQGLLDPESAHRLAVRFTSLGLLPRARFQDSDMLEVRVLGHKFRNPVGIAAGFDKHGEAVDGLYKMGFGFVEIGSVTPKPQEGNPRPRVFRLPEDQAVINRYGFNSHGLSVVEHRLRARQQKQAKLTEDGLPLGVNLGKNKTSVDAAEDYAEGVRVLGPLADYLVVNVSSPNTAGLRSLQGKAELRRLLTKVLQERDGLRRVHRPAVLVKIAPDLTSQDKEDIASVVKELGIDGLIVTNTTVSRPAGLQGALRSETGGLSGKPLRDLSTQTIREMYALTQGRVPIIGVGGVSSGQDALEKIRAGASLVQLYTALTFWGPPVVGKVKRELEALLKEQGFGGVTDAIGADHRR

SF-539 = experiment: 39-cancer cell panel assay: SF-539; type: cell-based; settings: Homo sapiens, CNS
SNB-75 = experiment: 39-cancer cell panel assay: SNB-75; type: cell-based; settings: Homo sapiens, CNS
OVCAR-8 = experiment: 39-cancer cell panel assay: OVCAR-8; type: cell-based; settings: Homo sapiens, Ov
KM-12 = experiment: 39-cancer cell panel assay: KM-12; type: cell-based, human; settings: Co
DU-145 = experiment: 39-cancer cell panel assay: DU-145; type: cell-based; settings: Homo sapiens, Pro
MCF-7 = experiment: 39-cancer cell panel assay: MCF-7; type: cell-based; settings: Homo sapiens, MCF7, Br
NCI-H23 = experiment: 39-cancer cell panel assay: NCI-H23; type: cell-based; settings: Homo sapiens, Lu
U251 = experiment: 39-cancer cell panel assay: U251; type: cell-based; settings: Homo sapiens, U-251, CNS
MKN7 = experiment: 39-cancer cell panel assay: MKN7; type: cell-based; settings: Homo sapiens, MKN-7, St
BSY-1 = experiment: 39-cancer cell panel assay: BSY-1; type: cell-based; settings: Homo sapiens, Br
MKN45 = experiment: 39-cancer cell panel assay: MKN45; type: cell-based; settings: Homo sapiens, MKN-45, St
SNB-78 = experiment: 39-cancer cell panel assay: SNB-78; type: cell-based; settings: Homo sapiens, CNS
St-4 = experiment: 39-cancer cell panel assay: St-4; type: cell-based; settings: Homo sapiens
LOX-IMVI = experiment: 39-cancer cell panel assay: LOX-IMVI; type: cell-based; settings: Homo sapiens, Me
RXF-631L = experiment: 39-cancer cell panel assay: RXF-631L; type: cell-based; settings: Homo sapiens, Re
Complex II = target: T3, Complex II (Bos taurus, UniProt P35720+Q3T189+Q95123); experiment: Succinate:quinone reductase (complex II) activity, bovine mitochondria; type: biochemical
T3 construct: from tissue; host or cells: bovine mitochondrial fraction / sub-mitochondrial particles
T3 sequence (P31039 45-665 partner limits assumed): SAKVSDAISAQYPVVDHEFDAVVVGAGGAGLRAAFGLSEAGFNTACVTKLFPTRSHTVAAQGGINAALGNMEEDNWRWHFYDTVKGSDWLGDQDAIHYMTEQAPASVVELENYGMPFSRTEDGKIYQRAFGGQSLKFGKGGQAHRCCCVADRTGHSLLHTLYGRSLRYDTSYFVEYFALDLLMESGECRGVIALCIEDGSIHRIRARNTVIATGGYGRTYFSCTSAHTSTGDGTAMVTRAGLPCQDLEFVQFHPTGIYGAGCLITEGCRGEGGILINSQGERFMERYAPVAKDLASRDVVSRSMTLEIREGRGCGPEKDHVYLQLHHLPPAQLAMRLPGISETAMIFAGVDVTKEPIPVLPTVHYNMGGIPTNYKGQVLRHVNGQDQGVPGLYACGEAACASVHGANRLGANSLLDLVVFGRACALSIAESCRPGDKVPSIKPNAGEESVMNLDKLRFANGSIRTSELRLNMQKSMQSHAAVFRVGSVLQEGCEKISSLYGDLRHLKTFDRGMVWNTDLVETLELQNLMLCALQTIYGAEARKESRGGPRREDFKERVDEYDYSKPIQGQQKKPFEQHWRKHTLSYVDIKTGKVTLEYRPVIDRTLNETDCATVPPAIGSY
T3 sequence (Q3T189 29-280): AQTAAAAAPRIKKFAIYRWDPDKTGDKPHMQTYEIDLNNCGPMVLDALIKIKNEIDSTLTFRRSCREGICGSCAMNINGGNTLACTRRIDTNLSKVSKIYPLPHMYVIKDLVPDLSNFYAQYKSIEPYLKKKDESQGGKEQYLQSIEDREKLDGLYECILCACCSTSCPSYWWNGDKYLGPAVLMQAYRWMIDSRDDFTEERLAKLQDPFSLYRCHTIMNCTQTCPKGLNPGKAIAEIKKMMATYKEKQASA
T3 sequence (P35720 30-169): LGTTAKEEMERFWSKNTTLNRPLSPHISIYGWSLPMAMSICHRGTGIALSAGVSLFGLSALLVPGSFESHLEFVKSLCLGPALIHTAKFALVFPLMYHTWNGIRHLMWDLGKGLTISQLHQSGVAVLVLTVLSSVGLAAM
T3 sequence (Q95123 56-158): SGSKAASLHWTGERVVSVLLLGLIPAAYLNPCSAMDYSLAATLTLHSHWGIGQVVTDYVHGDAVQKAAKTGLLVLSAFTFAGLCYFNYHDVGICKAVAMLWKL

HBC-5 = experiment: 39-cancer cell panel assay: HBC-5; type: cell-based; settings: Homo sapiens, HBC5, Br
mammalian complex III = system: mammalian complex III; set-up: method as in Berry et al., 2010; settings: ref Berry et al., 2010; read-out: IC50 against mammalian complex III; cited from earlier work
[2] = read-out: IC50 (μM) DLD-1 (24 h) Hypoxia nutrient (-), DLD-1, 24 h, hypoxia (1% oxygen), nutrient (-)
[3] = read-out: IC50 (μM) DLD-1 (24 h) Normoxia nutrient (+), DLD-1, 24 h, normoxia, nutrient (+)
[4] = DLD-1, 48 h, hypoxia (1% oxygen), nutrient (-), read-out: IC50 (μM) DLD-1 (48 h) Hypoxia nutrient (-)
[5] = DLD-1, 48 h, normoxia, nutrient (+), read-out: IC50 (μM) DLD-1 (48 h) Normoxia nutrient (+)
[6] = read-out: IC50 (μM) HDF (24 h) Hypoxia nutrient (-), hypoxia (1% oxygen), nutrient (-)
[7] = read-out: IC50 (μM) HDF (24 h) Normoxia nutrient (+), normoxia, nutrient (+)
[8] = purified enzyme fixed at 10 nM, read-out: IC50 (nM), inhibition of human DHODH

CC(=O)OC(C)/C(C)=C/CC/C(C)=C/Cc1c(O)c(Cl)c(C)c(C=O)c1O (stereo not drawn) [Compound 7]
GI50 (NCI-H460): 0.94 µM
GI50 (OVCAR-5): 18 µM
Inhibition (%) Complex I (Complex I): 15 ± 2.3%
GI50 (MKN74): 11 µM
GI50 (DMS273): 0.91 µM
IC50 (Complex II–III): 2.3 ± 0.16 µM
GI50 (SF-268): 5 µM
GI50 (PC-3): 15 µM
GI50 (NCI-H226): 11 µM
GI50 (HCT-116): 1.5 µM
GI50 (MKN1): 16 µM
GI50 (HCT-15): 0.58 µM
GI50 (A549): 3.3 µM
GI50 (HCC2998): 13 µM
GI50 (SF-295): 8 µM
GI50 (MDA-MB-231): 11 µM
GI50 (OVCAR-3): 13 µM
GI50 (DMS114): 14 µM
IC50 (DLD-1 cells; [2]): 2 ± 0.19 µM
IC50 (DLD-1 cells; [3]): > 100 µM
IC50 (DLD-1 cells; [4]): 0.95 ± 0.059 µM
IC50 (DLD-1 cells; [5]): > 100 µM
inhibition at 5 µM (Complex III): > 80%
GI50 (HT-29): 3.2 µM
GI50 (HBC-4): 5 µM
GI50 (OVCAR-4): 27 µM
IC50 (Complexes I–III): 0.46 ± 0.01 µM
GI50 (ACHN): 9.9 µM
GI50 (SK-OV-3): 12 µM
GI50 (NCI-H522): 4.9 µM
GI50 (MKN28): 11 µM
IC50 (HDF cells; [6]): 3.4 ± 0.36 µM
IC50 (HDF cells; [7]): > 100 µM
IC50 [1, 8]: 6.4 ± 0.2 nM
GI50 (SF-539): 0.27 µM
GI50 (SNB-75): 22 µM
GI50 (OVCAR-8): 8.8 µM
GI50 (μM) KM-12 (KM-12): 5.7 µM
GI50 (DU-145): 14 µM
GI50 (MCF-7): 4.9 µM
GI50 (NCI-H23): 15 µM
GI50 (U251): 1.5 µM
GI50 (MKN7): 16 µM
GI50 (BSY-1): 20 µM
GI50 (MKN45): 20 µM
GI50 (SNB-78): 21 µM
GI50 (St-4): 13 µM
GI50 (LOX-IMVI): 1.5 µM
GI50 (RXF-631L): 7.5 µM
inhibition at 5 µM (Complex II): 3.2 ± 6.7%
GI50 (HBC-5): 25 µM

COC(=O)/C(C)=C/CC/C(C)=C/Cc1c(O)c(Cl)c(C)c(C=O)c1O [Compound 9]
GI50 (NCI-H460): 4.3 µM
GI50 (OVCAR-5): 12 µM
Inhibition (%) Complex I (Complex I): 7.6 ± 4.2%
GI50 (MKN74): 14 µM
GI50 (DMS273): 3 µM
IC50 (Complex II–III): 5.7 ± 0.37 µM
GI50 (SF-268): 8.1 µM
GI50 (PC-3): 22 µM
GI50 (NCI-H226): 13 µM
GI50 (HCT-116): 2.5 µM
GI50 (MKN1): 14 µM
GI50 (HCT-15): 0.83 µM
GI50 (A549): 4.7 µM
GI50 (HCC2998): 17 µM
GI50 (SF-295): 11 µM
GI50 (MDA-MB-231): 14 µM
GI50 (OVCAR-3): 5.3 µM
GI50 (DMS114): 15 µM
IC50 (DLD-1 cells; [2]): 1.6 ± 0.42 µM
IC50 (DLD-1 cells; [3]): > 100 µM
IC50 (DLD-1 cells; [4]): 0.67 ± 0.066 µM
IC50 (DLD-1 cells; [5]): > 100 µM
inhibition at 5 µM (Complex III): > 80%
GI50 (HT-29): 6.5 µM
GI50 (HBC-4): 5.6 µM
GI50 (OVCAR-4): 11 µM
IC50 (Complexes I–III): 1 ± 0.02 µM
GI50 (ACHN): 9.9 µM
GI50 (SK-OV-3): 11 µM
GI50 (NCI-H522): 5.3 µM
GI50 (MKN28): 12 µM
IC50 (HDF cells; [6]): 3.1 ± 0.19 µM
IC50 (HDF cells; [7]): > 100 µM
IC50 [1, 8]: ~5 nM
GI50 (SF-539): 0.54 µM
GI50 (SNB-75): 9.7 µM
GI50 (OVCAR-8): 9.1 µM
GI50 (μM) KM-12 (KM-12): 6.4 µM
GI50 (DU-145): 10 µM
GI50 (MCF-7): 7.3 µM
GI50 (NCI-H23): 7.8 µM
GI50 (U251): 0.97 µM
GI50 (MKN7): 13 µM
GI50 (BSY-1): 27 µM
GI50 (MKN45): 14 µM
GI50 (SNB-78): 8.8 µM
GI50 (St-4): 7.5 µM
GI50 (LOX-IMVI): 2.1 µM
GI50 (RXF-631L): 8.4 µM
inhibition at 5 µM (Complex II): 5.3 ± 4.1%
GI50 (HBC-5): 28 µM

CC(/C=C/[C@@]1(C)[C@H](C)CCC(=O)[C@@H]1C)=C\Cc1c(O)c(Cl)c(C)c(C=O)c1O [Compound 10, Ascochlorin]
Inhibition (%) Complex I (Complex I): 6.8 ± 4.1%
IC50 (Complex II–III): 0.0069 ± 0.0002 µM
IC50 (mammalian complex III): 0.013 µM
inhibition at 5 µM (Complex III): 94 ± 2.4%
IC50 (Complexes I–III): 0.0033 ± 0.0001 µM
inhibition at 1 µM ([1]; at 1,000 nM, read-out: Inhibition of HsDHODH activity (value in parentheses)): 33%
IC50 ([1]; Table 6, read-out: IC50 (μM) HsDHODH): 2300 ± 1900 nM
IC50 [1, 8]: > 1000 nM
inhibition at 5 µM (Complex II): 3.6 ± 8.5%
